Residue numbers refer to the chain shown, from its start. “Also recorded” adds a separate entry of the source. Where a SMILES comes first, the peptide text is derived from it. [ ]: non-standard residue; d: D form. pT = C[C@@H](OP(=O)(O)O)[C@H](N)C(=O)O
Tests used:
PDK1[Q150A] [1] = target: T1, PDK1[Q150A] (Homo sapiens, UniProt O15530, Q150A); test: PDK1 catalytic activity towards T308tide, activation by peptides, PDK1[Q150A]; format: biochemical; parameters: made in house
T1 sequence (O15530 1-556 Q150A): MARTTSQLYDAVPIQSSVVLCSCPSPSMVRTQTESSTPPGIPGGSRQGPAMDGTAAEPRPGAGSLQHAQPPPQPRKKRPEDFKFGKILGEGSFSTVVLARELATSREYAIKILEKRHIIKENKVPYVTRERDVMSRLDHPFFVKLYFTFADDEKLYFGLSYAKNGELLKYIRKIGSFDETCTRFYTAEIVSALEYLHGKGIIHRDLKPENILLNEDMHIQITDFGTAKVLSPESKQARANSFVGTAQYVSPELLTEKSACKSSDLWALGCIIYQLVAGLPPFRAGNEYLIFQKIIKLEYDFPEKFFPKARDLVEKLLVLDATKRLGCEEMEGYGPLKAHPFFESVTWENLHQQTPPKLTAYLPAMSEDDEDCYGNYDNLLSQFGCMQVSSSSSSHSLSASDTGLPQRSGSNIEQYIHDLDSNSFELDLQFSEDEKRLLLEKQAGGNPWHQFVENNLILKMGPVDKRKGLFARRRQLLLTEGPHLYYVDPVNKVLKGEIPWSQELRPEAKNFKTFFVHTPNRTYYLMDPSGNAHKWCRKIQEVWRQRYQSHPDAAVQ
Experimental: C. Activation of the indicated forms of PDK1 by 56K-pHM and S6K-HM. PDK1 activity was measured using the peptide substrate (T308tide) in the presence of the indicated concentrations of 56K-pHM (closed circles) and S6K-HM (open circles) as described in the methods. Assays were performed in triplicate and similar results obtained in 2 separate experiments. The results are the average—SD for a single experiment.
The ability of wild type and mutant PDK1 to phosphorylate the synthetic peptide T308tide ([…] ([Biondi et al., 2000]) (SEQ ID NO:108) was carried out in 30 μl assays containing 100 ng of wild type or mutant PDK1, 50 mM Tris/HCl pH 7.5, 0.1% 13-mercaptoethanol, 10 mM MgCl2, 100 μM [32γ P]ATP (200 cpm/pmol), 0.5 μM microcystin-LR, 1 mM T308tide in the presence or absence of the indicated concentrations of the 56K-pHM peptide ([…](P)YVAPSV) (SEQ ID NO:104) or 56K-HM. peptide ([…]) (SEQ ID NO:105). After incubation for 10 min at 30° C., 25 μl of the resultant mixture was spotted into P81 phosphocellulose paper (2×2 cm) and the papers washed and analysed as described previously for assays of MAP kinase. Control assays were carried out in parallel in which either PDK1, or peptide substrate were omitted; these values were always less than 5% of the activity measured in the presence of these reagents. […]

PDK1[T148A] = target: T2, PDK1[T148A] (Homo sapiens, UniProt O15530, T148A); test: Surface plasmon resonance (BiaCore) binding, PDK1[T148A]; parameters: made in house; host or cells: human embryonic kidney 293 cells (pEBG2T vector)
T2 sequence (O15530 1-556 T148A): T1 sequence (O15530 1-556 Q150A) with T148A, A150Q
Experimental: (§1) Binding and activation of wild type and mutant forms of PDK1 to a phosphopeptide derived from the hydrophobic motif of S6K1. The binding of the wild type (wt) PDK1 and indicated mutants to a phosphopeptide comprising the hydrophobic motif of S6K1 (S6K-pHM: […]*YVAPSV, where T* indicates phospho-threonine, SEQ ID NO:104) was analysed by surface plasmon resonance as described in the Materials and Methods.
(§2) A. The sensor chip SA was coated with 12RUs of the biotinylated S6K-pHM peptide and the binding was analysed following injection of 270 nM wild type PDK1, PDK1 [T148A] and PDK1 [K76A]. […] (data not shown).
B. As in A. except that binding was analysed over a range of PDK1 concentrations (2-2150 nM). The response level at the steady state binding is plotted versus the log of the PDK1 concentration. The estimated Kd was obtained by fitting the data to a sigmoid curve using Kaleidagraph software.
Binding was analysed in a BiaCore 3000 system (BiaCore AB, Stevenage, UK). Biotinylated S6K-pHM (Biotin-C12-[…](P)YVAPSV) (SEQ ID NO:104) or the non-phosphorylated form of this peptide S6K-HM was bound to an streptavidin-coated Sensor chip (SA) (12 response units, RU). […] Steady state binding was determined at each concentration. Dissociation of PDK1 from the phospho-peptide was monitored over a 1 min period. […]

PDK1[Q150A] [2] = target: T1, PDK1[Q150A]; test: Surface plasmon resonance (BiaCore) binding, PDK1[Q150A]; parameters: made in house; host or cells: human embryonic kidney 293 cells (pEBG2T vector)
Experimental: as §1, §2
Binding was analysed in a BiaCore 3000 system (BiaCore AB, Stevenage, UK). Biotinylated S6K-pHM (Biotin-C12-[…](P)YVAPSV) (SEQ ID NO:104) or the non-phosphorylated form of this peptide S6K-HM was bound to an streptavidin-coated Sensor chip (SA) (12 response units, RU). 30 μl of wild type or the indicated mutant GST-PDK1 were injected at a flow rate of 30 μl/min, in buffer HBS-P (10 mM HEPES pH 7.4, 0.15M NaCl, 0.005% (by vol) polysorbate-20) supplemented with 1 mM DTT. Specific interactions between 56K-pHM and PDK1 proteins were obtained between the concentration range of 2-2150 nM PDK1. Steady state binding was determined at each concentration. Dissociation of PDK1 from the phospho-peptide was monitored over a 1 min period. […]

CC(C)C[C@H](NC(=O)[C@H](Cc1ccccc1)NC(=O)[C@@H](NC(=O)[C@H](CCC(N)=O)NC(=O)[C@H](CC(N)=O)NC(=O)[C@H](C)NC(=O)[C@H](CO)NC(=O)[C@H](CCC(=O)O)NC(=O)[C@@H](N)CO)C(C)C)C(=O)NCC(=O)N[C@@H](Cc1ccccc1)C(=O)N[C@H](C(=O)N[C@@H](Cc1ccc(O)cc1)C(=O)N[C@H](C(=O)N[C@@H](C)C(=O)N1CCC[C@H]1C(=O)N[C@@H](CO)C(=O)N[C@H](C(=O)O)C(C)C)C(C)C)[C@@H](C)OP(=O)(O)O [S6K-pHM] (H-SESANQVFLGF[pT]YVAPSV-OH; N-terminus and C-terminus assumed)
activation of PDK1[Q150A] (PDK1[Q150A] [1]; peptide 0.3 and 1 mM): 2-3 fold
activation of PDK1[Q150A] (PDK1[Q150A] [1]; peptide below 0.1 mM): not significantly activated
dissociation of PDK1[T148A] from peptide compared with wild type PDK1 or PDK1[K76A] (PDK1[T148A]; BiaCore, 270 nM PDK1): markedly slower
higher affinity of PDK1[T148A] than wild type PDK1 (PDK1[T148A]; relative to wild type PDK1): about 10 fold
binding of PDK1[Q150A] to peptide (PDK1[Q150A] [2]): No detectable binding; also recorded: did not detectably interact
